Source: ChEMBL document CHEMBL3046787, “Molecular modeling studies of some substituted chalcone derivatives as cysteine protease inhibitors” (Med Chem Res, 2012)
pIC50: −log10 of the molar value.

Tested on: Plasmodium falciparum
Assay: Inhibition of Plasmodium falciparum W2
Conditions: for pIC50: read-out: IC50; for IC50: read-out: pIC50 (converted)

SMILES | pIC50 | IC50 [nM]
COc1cc(/C=C/C(=O)c2ccc3ccccc3c2)cc(OC)c1 | 5.02 | 9510
COc1cccc(OC)c1/C=C/C(=O)c1ccc2ccccc2c1 | 5.48 | 3300
COc1ccc(OC)c(/C=C/C(=O)c2ccccn2)c1 | 5.85 | 1400
COc1ccc(/C=C/C(=O)c2cccc(Cl)c2Cl)cc1OC | 5.94 | 1140
O=C(/C=C/c1ccc(Cl)c(Cl)c1)c1ccnc2ccccc12 | 6.10 | 800
COc1ccc(/C=C/C(=O)c2cccnc2)cc1 | 5.00 | 10000
COc1ccc(/C=C/C(=O)c2cccnc2)c(OC)c1 | 5.57 | 2700
COc1ccc(/C=C/C(=O)c2cccc3ccccc23)cc1OC | 5.30 | 5000
COc1ccc(/C=C/C(=O)c2ccccn2)c(OC)c1OC | 5.64 | 2300
COc1ccc(C(=O)/C=C/c2ccc(Cl)cc2Cl)c(OC)c1 | 5.42 | 3800
COc1ccc(/C=C/C(=O)c2ccccn2)c(OC)c1 | 5.77 | 1700
COc1ccc(/C=C/C(=O)c2ccc(Cl)cc2Cl)c(OC)c1 | 6.05 | 899
COc1ccc(/C=C/C(=O)c2cc3ccccc3nc2Cl)cc1OC | 6.29 | 511
COc1ccc(OC)c(/C=C/C(=O)c2cccc3ccccc23)c1 | 5.55 | 2800
COc1ccc(/C=C/C(=O)c2ccccn2)cc1 | 4.92 | 12000
COc1ccc(C(=O)/C=C/c2ccc(F)cc2F)c(OC)c1 | 4.95 | 11100
COc1ccc(OC)c(/C=C/C(=O)c2cccc(Cl)c2Cl)c1 | 6.04 | 920
COc1cc(/C=C/C(=O)c2cccc3ccccc23)cc(OC)c1OC | 5.32 | 4800
COc1ccc(/C=C/C(=O)c2ccc(C(F)(F)F)cc2)c(OC)c1 | 6.12 | 750
COc1ccc(/C=C/C(=O)c2ccncc2)c(OC)c1OC | 5.49 | 3200
COc1ccc(/C=C/C(=O)c2ccc3ccccc3c2)cc1OC | 5.11 | 7690

SMILES | pIC50 | IC50 [nM]
COc1ccc(/C=C/C(=O)c2ccncc2)cc1 | 4.92 | 12000
COc1ccc(OC)c(/C=C/C(=O)c2ccc3ccccc3c2)c1 | 5.30 | 5000
COc1ccc(/C=C/C(=O)c2cc3ccccc3nc2Cl)c(OC)c1 | 6.00 | 1000
COc1ccc(/C=C/C(=O)c2ccc(Cl)cc2Cl)c(OC)c1OC | 6.44 | 360
COc1ccc(/C=C/C(=O)c2cccc3ccccc23)cc1 | 5.00 | 10000
O=C(/C=C/c1cc(Cl)ccc1Cl)c1ccnc2ccccc12 | 6.64 | 230
COc1ccc(/C=C/C(=O)c2cccc3ccccc23)c(OC)c1 | 5.34 | 4600
COc1ccc(/C=C/C(=O)c2cccc3ccccc23)c(OC)c1OC | 5.24 | 5790
COc1cc(/C=C/C(=O)c2ccc3ccccc3c2)cc(OC)c1OC | 5.22 | 6000
COc1ccc(/C=C/C(=O)c2cccc(Cl)c2Cl)c(OC)c1 | 5.86 | 1380
O=C(/C=C/c1cccnc1)c1cc2ccccc2nc1Cl | 6.15 | 710
COc1cccc(OC)c1/C=C/C(=O)c1cccc2ccccc12 | 5.51 | 3100
COc1ccc(OC)c(/C=C/C(=O)c2ccc(Cl)cc2Cl)c1 | 6.12 | 750
COc1ccc(/C=C/C(=O)c2cccnc2)c(OC)c1OC | 5.41 | 3900
O=C(/C=C/c1ccc(-n2ccnc2)cc1)c1ccc(Cl)cc1Cl | 5.93 | 1180
COc1ccc(/C=C/C(=O)c2ccc(F)c(F)c2)c(OC)c1 | 5.68 | 2090
COc1cc(/C=C/C(=O)c2cccc3ccccc23)cc(OC)c1 | 5.37 | 4300
O=C(/C=C/c1ccc(F)cc1F)c1cc2ccccc2nc1Cl | 6.00 | 1000
COc1cccc(OC)c1/C=C/C(=O)c1ccc(Cl)cc1 | 6.11 | 769
COc1ccc(/C=C/C(=O)c2ccc(F)cc2F)c(OC)c1 | 5.72 | 1900
